Data reported in patent US20080051387A1, “TETRAHYDROPYRIDO[3,4-D]PYRIMIDINES AND RELATED ANALOGUES” (priority 2006, published 2008).

Molecular target: T1, chimeric human H3 receptor (Homo sapiens, UniProt Q9Y5N1)
T1 construct: rat Galpha-i2 (Gnai2, rat); made in house; host or cells: Sf9 insect cells (baculovirus); P2 membranes
Assay: Chimeric human H3 receptor screening GTP binding assay (inhibition of histamine-stimulated GTP-gamma35S binding, Example 8)
Format: biochemical
Conditions: symbol ! in Ki; test compound 4 μM, 1 μM histamine; read-out: percent inhibition of agonist-induced GTP-gammaS binding to H3
In short: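 Compound tested at 4 μM against 1 μM histamine stimulation; 125 pM GTP-gamma35S binding measured by filtration and scintillation after 60 min at room temperature. Membranes from Sf9 cells expressing chimeric human H3 plus G-protein subunits, in Tris pH 7.4/NaCl/MgCl2/GDP buffer; values are % inhibition after nonspecific subtraction.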

T1 sequence (Q9Y5N1 with tags, fused parts or gaps): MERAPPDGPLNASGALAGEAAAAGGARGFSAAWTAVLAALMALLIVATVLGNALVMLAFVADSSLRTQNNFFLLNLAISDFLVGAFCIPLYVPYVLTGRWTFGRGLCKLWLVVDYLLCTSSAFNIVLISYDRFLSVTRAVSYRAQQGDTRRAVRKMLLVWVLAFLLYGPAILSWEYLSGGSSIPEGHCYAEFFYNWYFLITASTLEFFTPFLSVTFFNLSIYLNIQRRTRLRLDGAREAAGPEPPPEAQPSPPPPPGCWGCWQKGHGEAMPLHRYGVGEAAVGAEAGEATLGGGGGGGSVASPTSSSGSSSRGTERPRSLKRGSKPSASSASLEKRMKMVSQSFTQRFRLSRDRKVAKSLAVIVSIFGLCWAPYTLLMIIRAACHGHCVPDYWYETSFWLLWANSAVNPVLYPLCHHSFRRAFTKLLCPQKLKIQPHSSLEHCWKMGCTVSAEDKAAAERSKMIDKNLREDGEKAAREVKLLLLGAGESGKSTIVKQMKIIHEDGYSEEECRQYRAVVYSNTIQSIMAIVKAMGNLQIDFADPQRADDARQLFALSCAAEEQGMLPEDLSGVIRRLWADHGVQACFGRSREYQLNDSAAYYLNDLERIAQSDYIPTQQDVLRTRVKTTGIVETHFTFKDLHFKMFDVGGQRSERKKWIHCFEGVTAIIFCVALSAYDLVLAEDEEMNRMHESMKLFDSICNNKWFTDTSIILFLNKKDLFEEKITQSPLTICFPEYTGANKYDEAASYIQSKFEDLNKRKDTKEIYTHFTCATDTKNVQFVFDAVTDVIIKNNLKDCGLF

Inhibition at 4 µM, ≥ 90%:
Fc1ccc(CN2CCc3ncnc(N4CCN(C5CCC5)CC4)c3CC2)cc1 [Compound 147, 4-(4-cyclobutylpiperazin-1-yl)-7-(4-fluorobenzyl)-6,7,8,9-tetrahydro-5H-pyrimido[4,5-d]azepine]
Cc1cccc(CN2CCc3ncnc(N4CCN(C5CCC5)CC4)c3CC2)c1 [Compound 148, 4-(4-cyclobutylpiperazin-1-yl)-7-(3-methylbenzyl)-6,7,8,9-tetrahydro-5H-pyrimido[4,5-d]azepine]
Cc1ccc(CN2CCc3ncnc(N4CCN(C5CCC5)CC4)c3CC2)cc1 [Compound 149, 4-(4-cyclobutylpiperazin-1-yl)-7-(4-methylbenzyl)-6,7,8,9-tetrahydro-5H-pyrimido[4,5-d]azepine]
Cn1ccnc1CN1CCc2ncnc(N3CCN(C4CCC4)CC3)c2CC1 [Compound 150, 4-(4-cyclobutylpiperazin-1-yl)-7-[(1-methyl-1H-imidazol-2-yl)methyl]-6,7,8,9-tetrahydro-5H-pyrimido[4,5-d]azepine]
c1ccc2c(CN3CCc4ncnc(N5CCN(C6CCC6)CC5)c4CC3)ccnc2c1 [Compound 151, 4-(4-cyclobutylpiperazin-1-yl)-7-(quinolin-4-ylmethyl)-6,7,8,9-tetrahydro-5H-pyrimido[4,5-d]azepine]
c1ccc2ncc(CN3CCc4ncnc(N5CCN(C6CCC6)CC5)c4CC3)cc2c1 [Compound 152, 4-(4-cyclobutylpiperazin-1-yl)-7-(quinolin-3-ylmethyl)-6,7,8,9-tetrahydro-5H-pyrimido[4,5-d]azepine]
Cc1cccc(CN2CCc3ncnc(N4CCN(C5CCC5)CC4)c3CC2)n1 [Compound 153, 4-(4-cyclobutylpiperazin-1-yl)-7-[(6-methylpyridin-2-yl)methyl]-6,7,8,9-tetrahydro-5H-pyrimido[4,5-d]azepine]
c1cncc(CN2CCc3ncnc(N4CCN(C5CCC5)CC4)c3CC2)c1 [Compound 154, 4-(4-cyclobutylpiperazin-1-yl)-7-(pyridin-3-ylmethyl)-6,7,8,9-tetrahydro-5H-pyrimido[4,5-d]azepine]
c1nc2c(c(N3CCN(C4CCC4)CC3)n1)CCN(Cc1ccc(N3CCOCC3)nc1)CC2 [Compound 155, 4-(4-cyclobutylpiperazin-1-yl)-7-[(6-morpholin-4-ylpyridin-3-yl)methyl]-6,7,8,9-tetrahydro-5H-pyrimido[4,5-d]azepine]
Cc1cc(CN2CCc3ncnc(N4CCN(C5CCC5)CC4)c3CC2)n(C)n1 [Compound 156, 4-(4-cyclobutylpiperazin-1-yl)-7-[(1,3-dimethyl-1H-pyrazol-5-yl)methyl]-6,7,8,9-tetrahydro-5H-pyrimido[4,5-d]azepine]
COc1ccccc1CN1CCc2ncnc(N3CCN(C4CCC4)CC3)c2CC1 [Compound 157, 4-(4-cyclobutylpiperazin-1-yl)-7-(2-methoxybenzyl)-6,7,8,9-tetrahydro-5H-pyrimido[4,5-d]azepine]
COc1ccc(CN2CCc3ncnc(N4CCN(C5CCC5)CC4)c3CC2)c(OC)c1 [Compound 158, 4-(4-cyclobutylpiperazin-1-yl)-7-(2,4-dimethoxybenzyl)-6,7,8,9-tetrahydro-5H-pyrimido[4,5-d]azepine]
CC(C)c1ccc(CN2CCc3ncnc(N4CCN(C5CCC5)CC4)c3CC2)cc1 [Compound 159, 4-(4-cyclobutylpiperazin-1-yl)-7-(4-isopropylbenzyl)-6,7,8,9-tetrahydro-5H-pyrimido[4,5-d]azepine]
CCN1CCc2ncnc(N3CCN(C4CCC4)CC3)c2CC1 [Compound 160, 4-(4-cyclobutylpiperazin-1-yl)-7-ethyl-6,7,8,9-tetrahydro-5H-pyrimido[4,5-d]azepine]
CC(C)CCN1CCc2ncnc(N3CCN(C4CCC4)CC3)c2CC1 [Compound 161, 4-(4-cyclobutylpiperazin-1-yl)-7-(3-methylbutyl)-6,7,8,9-tetrahydro-5H-pyrimido[4,5-d]azepine]
CCCN1CCc2ncnc(N3CCN(C4CCC4)CC3)c2CC1 [Compound 162, 4-(4-cyclobutylpiperazin-1-yl)-7-propyl-6,7,8,9-tetrahydro-5H-pyrimido[4,5-d]azepine]
CCCCN1CCc2ncnc(N3CCN(C4CCC4)CC3)c2CC1 [Compound 163, 7-butyl-4-(4-cyclobutylpiperazin-1-yl)-6,7,8,9-tetrahydro-5H-pyrimido[4,5-d]azepine]
CCCCCN1CCc2ncnc(N3CCN(C4CCC4)CC3)c2CC1 [Compound 164, 4-(4-cyclobutylpiperazin-1-yl)-7-pentyl-6,7,8,9-tetrahydro-5H-pyrimido[4,5-d]azepine]
CCCCCCN1CCc2ncnc(N3CCN(C4CCC4)CC3)c2CC1 [Compound 165, 4-(4-cyclobutylpiperazin-1-yl)-7-hexyl-6,7,8,9-tetrahydro-5H-pyrimido[4,5-d]azepine]
CC(C)CN1CCc2ncnc(N3CCN(C4CCC4)CC3)c2CC1 [Compound 166, 4-(4-cyclobutylpiperazin-1-yl)-7-isobutyl-6,7,8,9-tetrahydro-5H-pyrimido[4,5-d]azepine]
CCC(C)CN1CCc2ncnc(N3CCN(C4CCC4)CC3)c2CC1 (stereo not shown) [Compound 167, 4-(4-cyclobutylpiperazin-1-yl)-7-(2-methylbutyl)-6,7,8,9-tetrahydro-5H-pyrimido[4,5-d]azepine]
CCC(CC)CN1CCc2ncnc(N3CCN(C4CCC4)CC3)c2CC1 [Compound 168, 4-(4-cyclobutylpiperazin-1-yl)-7-(2-ethylbutyl)-6,7,8,9-tetrahydro-5H-pyrimido[4,5-d]azepine]
c1nc2c(c(N3CCN(C4CCC4)CC3)n1)CCN(CC1CC1)CC2 [Compound 169, 4-(4-cyclobutylpiperazin-1-yl)-7-(cyclopropylmethyl)-6,7,8,9-tetrahydro-5H-pyrimido[4,5-d]azepine]
CCCC(C)CN1CCc2ncnc(N3CCN(C4CCC4)CC3)c2CC1 (stereo not shown) [Compound 170, 4-(4-cyclobutylpiperazin-1-yl)-7-(2-methylpentyl)-6,7,8,9-tetrahydro-5H-pyrimido[4,5-d]azepine]
c1nc2c(c(N3CCN(C4CCC4)CC3)n1)CCN(CC1CCOC1)CC2 (stereo not shown) [Compound 171, 4-(4-cyclobutylpiperazin-1-yl)-7-(tetrahydrofuran-3-ylmethyl)-6,7,8,9-tetrahydro-5H-pyrimido[4,5-d]azepine]
Cc1ccc(CN2CCc3ncnc(N4CCN(C5CCC5)CC4)c3CC2)cc1C [Compound 172, 4-(4-cyclobutylpiperazin-1-yl)-7-(3,4-dimethylbenzyl)-6,7,8,9-tetrahydro-5H-pyrimido[4,5-d]azepine]
c1nc2c(c(N3CCN(C4CCC4)CC3)n1)CCN(Cc1ccc3c(c1)OCCO3)CC2 [Compound 173, 4-(4-cyclobutylpiperazin-1-yl)-7-(2,3-dihydro-1,4-benzodioxin-6-ylmethyl)-6,7,8,9-tetrahydro-5H-pyrimido[4,5-d]azepine]
c1ccc2nc(CN3CCc4ncnc(N5CCN(C6CCC6)CC5)c4CC3)ccc2c1 [Compound 174, 4-(4-cyclobutylpiperazin-1-yl)-7-(quinolin-2-ylmethyl)-6,7,8,9-tetrahydro-5H-pyrimido[4,5-d]azepine]
COc1cccc(CN2CCc3ncnc(N4CCN(C5CCC5)CC4)c3CC2)c1OC [Compound 175, 4-(4-cyclobutylpiperazin-1-yl)-7-(2,3-dimethoxybenzyl)-6,7,8,9-tetrahydro-5H-pyrimido[4,5-d]azepine]
COc1ccc(OC)c(CN2CCc3ncnc(N4CCN(C5CCC5)CC4)c3CC2)c1 [Compound 176, 4-(4-cyclobutylpiperazin-1-yl)-7-(2,5-dimethoxybenzyl)-6,7,8,9-tetrahydro-5H-pyrimido[4,5-d]azepine]
CCn1cncc1CN1CCc2ncnc(N3CCN(C4CCC4)CC3)c2CC1 [Compound 177, 4-(4-cyclobutylpiperazin-1-yl)-7-[(1-ethyl-1H-imidazol-5-yl)methyl]-6,7,8,9-tetrahydro-5H-pyrimido[4,5-d]azepine]
c1nc2c(c(N3CCN(C4CCC4)CC3)n1)CCN(Cc1ccc(N3CCCC3)nc1)CC2 [Compound 178, 4-(4-cyclobutylpiperazin-1-yl)-7-[(6-pyrrolidin-1-ylpyridin-3-yl)methyl]-6,7,8,9-tetrahydro-5H-pyrimido[4,5-d]azepine]
Cc1c(F)cccc1CN1CCc2ncnc(N3CCN(C4CCC4)CC3)c2CC1 [Compound 179, 4-(4-cyclobutylpiperazin-1-yl)-7-(3-fluoro-2-methylbenzyl)-6,7,8,9-tetrahydro-5H-pyrimido[4,5-d]azepine]
Clc1ccccc1CN1CCc2ncnc(N3CCN(C4CCC4)CC3)c2CC1 [Compound 180, 7-(2-chlorobenzyl)-4-(4-cyclobutylpiperazin-1-yl)-6,7,8,9-tetrahydro-5H-pyrimido[4,5-d]azepine]
